Data on 9 compounds can be found in patent US20240124483A1, “Methods for the Treatment of Fibrotic Disease” (SHY Therapeutics, LLC, priority 2021, published 2024).

Read-outs that look alike come from different tables or passages of the source.

Test [1] relates to JNK. Nature of the test: JNK Activation Assay in Panc-1 (western blot). The class given is cell-based, Human. The arrangement: key: Y = yes; N = No. The settings on record: at 10 μM. An outline of the steps: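 Cells were serum-starved overnight in 0.5% FBS, then given compound (10 μM single dose or serial dilutions, 0.3% DMSO) for 3 h at 37 °C. TGF-b1 at 10 ng/ml followed, 1 h for Panc-1 and 20 min for C2C12. Phospho-JNK (Thr183/Tyr185) was read by western blot of lysates.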
In general terms: In western blotting, separated proteins are transferred to a membrane and probed.

Test [2] concerns the target KRas wild type (Homo sapiens (Human), UniProt P01116). The test can be described thus: Ras GTP Binding Domain Inhibition Assay, KRas wild type. An outline of the steps:
(§1)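 Steps: coat His-tagged protein (10-30 μg/mL) on nickel wells overnight at 4° C; add test compound, 20 μM final or serial dilution, 1% DMSO, 3 h RT; optional Sos final hour; add 100 nM Cy3-GTP or Cy5-GTP, 45 min; wash and read fluorescence.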

The target of test [3] is KRas G12C mutant (Homo sapiens (Human), UniProt P01116, G12C). The test can be described thus: Ras GTP Binding Domain Inhibition Assay, KRas G12C mutant. A digest of the protocol:
as §1

Test [4] deals with MAPK p38. The test can be described thus: MAPK p38 Activation Assay in Panc-1 (western blot). The test is classed as cell-based, Human. The arrangement: key: Y = yes; N = No. The settings on record: at 10 μM. An outline of the steps: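 Cells serum-starved overnight in 0.5% FBS, then compound 3 h at 37° C (10 μM or serial dilutions for IC50; 0.3% DMSO). TGF-b1 10 ng/ml stimulation followed: 1 h for Panc-1, 20 min for C2C12. Phospho-p38 (Thr180/Tyr182) measured by western blot of lysates.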

The target in test [5] is Rac-1 (Homo sapiens (Human), UniProt P63000). Nature of the test: Ras GTP Binding Domain Inhibition Assay, Rac-1. An outline of the steps:
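Fluorescent GTP binding to plate-captured His-tagged Ras: compound 20 μM (or dilution series for IC50), 3 h RT, ±Sos GEF 10-30 μg/mL last hour; then 100 nM Cy3/Cy5-GTP 45 min RT, wash ×3, read bound label.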

Setting [6] is: + SOS, read-out: KRas wild type + SOS: % inh.
Setting [7] is: without SOS, read-out: KRas wild type: % inh.
The mark [8] stands for this setting: + SOS, read-out: KRas G12C mutant + SOS: % inh.
The mark [9] stands for this setting: without SOS, read-out: KRas G12C mutant: % inh.
The mark [10] stands for this setting: + SOS, read-out: Rac-1 + SOS: % inh.
The mark [11] stands for this setting: without SOS, read-out: Rac-1: % inh.

KRas wild type, sequence (P01116 other isoform, or with tags, fused parts or gaps): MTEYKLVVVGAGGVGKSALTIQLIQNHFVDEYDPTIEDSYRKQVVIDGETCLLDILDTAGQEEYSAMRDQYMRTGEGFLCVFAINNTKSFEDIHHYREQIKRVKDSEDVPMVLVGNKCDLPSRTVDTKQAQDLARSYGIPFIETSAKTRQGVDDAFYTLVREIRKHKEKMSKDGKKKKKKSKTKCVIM
KRas G12C mutant, sequence (P01116 other isoform, or with tags, fused parts or gaps G12C): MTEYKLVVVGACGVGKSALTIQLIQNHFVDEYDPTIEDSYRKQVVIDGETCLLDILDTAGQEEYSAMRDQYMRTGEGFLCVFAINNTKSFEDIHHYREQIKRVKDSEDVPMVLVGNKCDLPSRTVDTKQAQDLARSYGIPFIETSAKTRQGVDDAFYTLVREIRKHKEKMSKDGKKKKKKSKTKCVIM

As to `COCCNc1nc(-c2cn(C)cn2)nc2sc(-c3cccc(OC)c3Cl)c(-c3ccc(OC)cc3)c12` [Compound 8, 6-(2-Chloro-3-methoxyphenyl)-N-(2-methoxyethyl)-5-(4-methoxyphenyl)-2-(1-methyl-1H-imidazol-4-yl)thieno[2,3-d]pyrimidin-4-amine], the “Activation of JNK in PANC-1” value in test [1] is listed as “Y”. Also, the inhibition at 20 µM in test [2] (setting [6]) is 76 to 100%; in test [2] (setting [7]), 46 to 75%; in test [3] (setting [8]), 76 to 100%; in test [3] (setting [9]) it was 26 to 45%; in test [5] (setting [10]) it was 46 to 75%; in test [5] (setting [11]) it was 46 to 75%. Also, the “Activation of MAPK p38 in PANC-1” value in test [4] is given as “Y”.

Consider `Cc1c(-c2ccn(C(C)C)n2)sc2nc(-c3nccn3C)nc(NCC3COCCN3C)c12` (racemic) [Compound 24, rac-6-(1-Isopropyl-1H-pyrazol-3-yl)-5-methyl-2-(1-methyl-1H-imidazol-2-yl)-N-((4-methylmorpholin-3-yl)methyl)thieno[2,3-d]pyrimidin-4-amine], for which, in test [1], the “Activation of JNK in PANC-1” value is reported as “Y”. The inhibition at 20 µM in test [2] (setting [6]) is 76 to 100%; in test [2] (setting [7]) it was 26 to 45%; in test [3] (setting [8]), 76 to 100%; in test [3] (setting [9]), 46 to 75%; in test [5] (setting [11]) it was 76 to 100%. Moreover, the “Activation of MAPK p38 in PANC-1” value in test [4] is “Y”.

Take `COCCCCOc1nc(-c2nccn2C)nc2sc(-c3ccn(C(C)C)n3)c(C)c12` [Compound 34, 6-(1-Isopropyl-1H-pyrazol-3-yl)-4-(4-methoxybutoxy)-5-methyl-2-(1-methyl-1H-imidazol-2-yl)thieno[2,3-d]pyrimidine]: the “Activation of JNK in PANC-1” value in test [1] is listed as “Y”. The inhibition at 20 µM in test [2] (setting [6]) was 0%; in test [2] (setting [7]), 1 to 25%; in test [3] (setting [8]), 1 to 25%; in test [3] (setting [9]), 0%; in test [5] (setting [11]), 0%. The “Activation of MAPK p38 in PANC-1” value in test [4] is recorded as “N”.

Consider `COCC1CN(c2nc(-c3nccn3C)nc3sc(-c4ccn(C(C)C)n4)c(C)c23)CCO1` (racemic) [Compound 15, 4-(6-(1-Isopropyl-1H-pyrazol-3-yl)-5-methyl-2-(1-methyl-1H-imidazol-2-yl)thieno[2,3-d]pyrimidin-4-yl)-2-(methoxymethyl)morpholine], for which the “Activation of JNK in PANC-1” value in test [1] is “Y”. Besides, the inhibition at 20 µM in test [2] (setting [6]) fell in the range of 76 to 100%; in test [2] (setting [7]), 76 to 100%; in test [3] (setting [8]), 76 to 100%; in test [3] (setting [9]), 46 to 75%; in test [5] (setting [11]), 76 to 100%. Also, the “Activation of MAPK p38 in PANC-1” value in test [4] is recorded as “Y”.

For `Cc1c(-c2ccn(C(C)C)n2)sc2nc(-c3nccn3C)nc(NCCN3CCS(=O)(=O)CC3)c12` [Compound 23, 4-(2-((6-(1-Isopropyl-1H-pyrazol-3-yl)-5-methyl-2-(1-methyl-1H-imidazol-2-yl)thieno[2,3-d]pyrimidin-4-yl)amino)ethyl)thiomorpholine 1,1-dioxide], the “Activation of JNK in PANC-1” value in test [1] is “N”. In addition, the inhibition at 20 µM was 76 to 100% in test [2] (setting [6]); 76 to 100% in test [2] (setting [7]); 76 to 100% in test [3] (setting [8]); 46 to 75% in test [3] (setting [9]); 46 to 75% in test [5] (setting [11]). For the same compound, the “Activation of MAPK p38 in PANC-1” value in test [4] was “Y”.

Consider `COc1cccc(Nc2nc(-c3nccn3C)nc3sc(-c4ccn(C(C)C)n4)c(C)c23)n1` [Compound 18, 6-(1-Isopropyl-1H-pyrazol-3-yl)-N-(6-methoxypyridin-2-yl)-5-methyl-2-(1-methyl-1H-imidazol-2-yl)thieno[2,3-d]pyrimidin-4-amine], for which the “Activation of JNK in PANC-1” value in test [1] was “Y”. Also, the inhibition at 20 µM in test [2] (setting [6]), in test [2] (setting [7]), in test [3] (setting [8]), in test [3] (setting [9]) and in test [5] (setting [11]) was 46 to 75% in each case. Besides, the “Activation of MAPK p38 in PANC-1” value in test [4] is “Y”.

Regarding `COCCO[C@H]1CC[C@@H](Nc2nc(-c3nccn3C)nc3sc(-c4ccn(C(C)C)n4)c(C)c23)C1` (racemic) [Compound 20, rac-6-(1-Isopropyl-1H-pyrazol-3-yl)-N-((1R,3S)-3-(2-methoxyethoxy)cyclopentyl)-5-methyl-2-(1-methyl-1H-imidazol-2-yl)thieno[2,3-d]pyrimidin-4-amine], in test [1], the “Activation of JNK in PANC-1” value is “Y”. The inhibition at 20 µM was 76 to 100% in test [2] (setting [6]); 76 to 100% in test [2] (setting [7]); 76 to 100% in test [3] (setting [8]); 76 to 100% in test [3] (setting [9]); 46 to 75% in test [5] (setting [11]). Moreover, the “Activation of MAPK p38 in PANC-1” value in test [4] is “Y”.

Take `COCCn1ccc(-c2sc3nc(-c4nccn4C)nc(NC[C@H]4CC[C@H]4COC)c3c2C)n1` (racemic) [Compound 38, rac-6-(1-(2-Methoxyethyl)-1H-pyrazol-3-yl)-N-(((1S,2R)-2-(methoxymethyl)cyclobutyl)methyl)-5-methyl-2-(1-methyl-1H-imidazol-2-yl)thieno[2,3-d]pyrimidin-4-amine]: the “Activation of JNK in PANC-1” value in test [1] is on record as “Y”. Further, the inhibition at 20 µM in test [2] (setting [6]) was 76 to 100%; in test [2] (setting [7]), 46 to 75%; in test [3] (setting [8]), 76 to 100%; in test [3] (setting [9]) it was 46 to 75%; in test [5] (setting [11]) it was 1 to 25%. Further, the “Activation of MAPK p38 in PANC-1” value in test [4] is reported as “Y”.

As for `COCCNc1nc(-c2nccn2C)nc2sc(-c3cccc(OC)c3Cl)c(-c3ccc(OC)cc3)c12` [Compound 7, 6-(2-Chloro-3-methoxyphenyl)-N-(2-methoxyethyl)-5-(4-methoxyphenyl)-2-(1-methyl-1H-imidazol-2-yl)thieno[2,3-d]pyrimidin-4-amine], the “Activation of JNK in PANC-1” value in test [1] was “Y”. The inhibition at 20 µM in test [2] (setting [6]) lay in the range of 76 to 100%; in test [2] (setting [7]), 46 to 75%; in test [3] (setting [8]), 76 to 100%; in test [3] (setting [9]) it was 26 to 45%; in test [5] (setting [10]), 46 to 75%; in test [5] (setting [11]), 46 to 75%. The “Activation of MAPK p38 in PANC-1” value in test [4] is on record as “Y”.
